The values that follow come from patent US12653814B2, “Benzimidazolone-based cinnamamide derivative as TRPV1 antagonist and pharmaceutical composition for treatment or prevention of pain containing same as active ingredient” (JMACKEM CO., LTD, priority 2020, dated 2026).

For orientation: IC50 means the midpoint of a concentration-inhibition curve. By bioavailability is commonly meant dose-corrected exposure relative to a reference, in per cent.

Series [1] concerns the target T1, human TRPV1 (hTRPV1) (Homo sapiens, UniProt Q8NER1).
T1 construct: host or cells: HEK (PrecisION hTRPV1-HEK recombinant cell line)
The experiment in a line: Ca2+ influx assay, antagonism against capsaicin in hTRPV1-HEK recombinant cells. Format: cell-based. The conditions noted are these: capsaicin 10 nM as activator, Fluo4-NW fluorescence, read-out: hTRPV1 IC50 [cap].

A short description of series [2]: Evaluation of bioavailability (BA), rat PK after intravenous and oral administration. Type of series: in vivo, SD rats. The conditions noted are these: male, SD, plasma, 10 mg/kg, read-out: Bioavailability F (%). As for the experimental part:
SD rats (Coatec, Hana Trading Co., Ltd., 7-8 weeks old, male, n=4, 250-300 g) were used for the experiment. The rats were bred in a small animal breeding room (experimental animal center) set at a temperature of 22±2° C., a relative humidity of 50±5%, an illumination time of 12 hours (08:00˜20:00), and an illumination intensity of 150 to 300 lux. Feed was fed freely during the entire test period, and RO water was provided freely. Before oral administration of the test substances (example compounds and comparative example compounds of the present invention), the rats were fasted for 16 hours.
The dosage of the example compounds and comparative example compounds of the present invention was 5 mg/kg when administered intravenously and 10 mg/kg when administered orally. For intravenous administration, a clear solution in which 10% DMSO, 10% Cremophor EL, and 80% PEG400 were dissolved was administered. For oral administration, a solution or suspension in which 10% DMSO and 10% Cremophor EL were dissolved in 80% DDW was administered.
After the intravenous or oral administration, blood was collected at 5 minutes, 15 minutes, 30 minutes, 1 hour, 2 hours, 4 hours, 6 hours and 8 hours, and the concentrations of the test substances (example compounds and comparative example compounds of the present invention) in plasma were measured by LC-MS/MS.
After adding 80 μl of acetonitrile (including internal standard) to 20 μl of plasma, centrifugation was performed for 5 minutes at 15,000 rpm at 4° C. with vortexing. The supernatant obtained after the centrifugation was analyzed by LC-MS/MS. For HPLC, Nexera XR system (Shimadzu, Japan) was used, and for mass spectrometer, TSQ vantage triple quadruple (Thermo, USA) was used.
The PK parameters were calculated with a non-compartmental analysis model using Phoenix WinNonlin 6.4 version (Pharsight, USA) program.
AUC was calculated using the linear trapezoidal rule in the rising plasma-level phase and the logarithmic trapezoidal rule in the declining phase.

The target of series [3] is T1, human TRPV1 (hTRPV1). The experiment in a line: Evaluation of human pH inhibitory activity in hTRPV1-HEK recombinant cells. The conditions noted are these: inhibition of activation at final pH 6.0, test substance 3 μM. Type of series: cell-based. The method, then: Evaluation of Human pH Inhibitory Activity
PrecisION™ hTRPV1-HEK recombinant cells (CYL3063) were purchased from Millipore and used. After culturing the above cells under the conditions of 37° C. and 5% CO2, the cells were inoculated in a 96-well plate at the density of 5×10^4 cells/well, followed by culture for 16 hours. Then, the medium was removed and 100 uL of a staining solution was put into each well, followed by culture for 30 minutes under the conditions of 37° C. and 5% CO2. After 30 minutes, all of the existing staining solution was removed and replaced with 100 uL of HBSS. Thereafter, the cells were acclimatized to room temperature for 15 minutes, and the test substances (example compounds and comparative example compounds of the present invention) were added to each well, followed by culture at room temperature for 15 minutes. Then, the final pH was adjusted to 6.0 using MES, and fluorescence was measured (ex485/em535). In the pH assay, the efficacy of the drug was evaluated using BCTC as a TRPV1 antagonist.

For series [4] the following is noted: even in the absence of partial agonism; cited from earlier work.

T1 sequence (Q8NER1 whole entry): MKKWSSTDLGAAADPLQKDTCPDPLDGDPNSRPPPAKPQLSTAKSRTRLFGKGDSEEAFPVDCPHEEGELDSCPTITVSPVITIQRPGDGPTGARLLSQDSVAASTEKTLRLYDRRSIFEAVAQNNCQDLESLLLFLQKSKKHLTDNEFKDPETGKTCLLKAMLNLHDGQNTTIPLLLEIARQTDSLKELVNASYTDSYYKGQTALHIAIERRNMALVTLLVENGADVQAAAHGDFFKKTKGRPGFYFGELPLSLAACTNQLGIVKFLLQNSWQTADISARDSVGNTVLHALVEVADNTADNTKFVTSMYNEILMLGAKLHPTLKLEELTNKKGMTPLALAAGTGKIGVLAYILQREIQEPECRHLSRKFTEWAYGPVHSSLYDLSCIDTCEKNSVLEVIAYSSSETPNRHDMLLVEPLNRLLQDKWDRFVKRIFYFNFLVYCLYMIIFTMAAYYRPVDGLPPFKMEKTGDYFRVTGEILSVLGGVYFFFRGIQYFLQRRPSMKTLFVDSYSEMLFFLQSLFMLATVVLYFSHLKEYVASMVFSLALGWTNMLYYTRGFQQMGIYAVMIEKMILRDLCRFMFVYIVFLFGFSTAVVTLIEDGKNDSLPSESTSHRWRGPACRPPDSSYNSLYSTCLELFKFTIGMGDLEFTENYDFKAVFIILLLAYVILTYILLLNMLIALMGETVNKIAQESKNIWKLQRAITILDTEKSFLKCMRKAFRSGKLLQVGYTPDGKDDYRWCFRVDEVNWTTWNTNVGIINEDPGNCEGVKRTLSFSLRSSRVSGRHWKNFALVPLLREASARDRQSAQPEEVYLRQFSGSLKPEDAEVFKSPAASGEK

Regarding `O=C(NCc1ccc(C(F)(F)F)nc1N1CCCCC1)Nc1cccc2[nH]c(=O)[nH]c12` [Comparative Example 3, 1-(2-oxo-1,3-dihydrobenzimidazol-4-yl)-3-[[2-(1-piperidyl)-6-(trifluoromethyl)-3-pyridyl]methyl]urea, reference compound], the IC50 in series [1] stood at 13.5 nM. The bioavailability in series [2] stood at 3%.
Turning to `CC(C)Oc1nc(C(F)(F)F)ccc1CNC(=O)Nc1cccc2[nH]c(=O)[nH]c12` [Comparative Example 2, 1-[[2-isopropoxy-6-(trifluoromethyl)-3-pyridyl]methyl]-3-(2-oxo-1,3-dihydrobenzimidazol-4-yl)urea, reference compound], in series [1], the IC50 amounted to 23.4 nM. Further, the bioavailability in series [2] is 1%.
Regarding `O=C(/C=C/c1ccc(C(F)(F)F)nc1OCC1CC1)Nc1cccc2[nH]c(=O)[nH]c12` [Example 13, (E)-3-(2-(cyclopropylmethoxy)-6-(trifluoromethyl)pyridin-3-yl)-N-(2-oxo-2,3-dihydro-1H-benzo[d]imidazol-4-yl)acrylamide], in series [1], the IC50 was 13.7 nM. Moreover, the “hTRPV1 pH (%, 3 μM)” value in series [3] amounted to 30.67%. For the same molecule, in series [2], the bioavailability was found to be 35.6%.
As for `O=C(/C=C/c1ccc(C(F)(F)F)nc1N1CCCCC1)Nc1cccc2[nH]c(=O)[nH]c12` [Example 4, (E)-N-(2-oxo-2,3-dihydro-1H-benzo[d]imidazol-4-yl)-3-(2-(piperidin-1-yl)-6-(trifluoromethyl)pyridin-3-yl)acrylamide], the IC50 in series [1] was 11.3 nM. Moreover, the “hTRPV1 pH (%, 3 μM)” value in series [3] came to 49.86%. Moreover, in series [2], the bioavailability was found to be 12.5%.
The matching figures for `O=C(/C=C/c1ccc(C(F)(F)F)nc1N1CCCC1)Nc1cccc2[nH]c(=O)[nH]c12` [Example 3, (E)-N-(2-oxo-2,3-dihydro-1H-benzo[d]imidazol-4-yl)-3-(2-(pyrrolidin-1-yl)-6-(trifluoromethyl)pyridin-3-yl)acrylamide]: 15.7 nM, 52.56% and 13.2%.
On to `O=C(/C=C/c1ccc(C(F)(F)F)cc1N1CCCCC1)Nc1cccc2c1C[C@H](O)C2` [AMG8562], for which the “effect on body temperature” value in series [4] is reported as “cause hypothermia”.
Regarding `CC(C)COc1nc(C(F)(F)F)ccc1/C=C/C(=O)Nc1cccc2[nH]c(=O)[nH]c12` [Example 10, (E)-3-(2-isobutoxy-6-(trifluoromethyl)pyridin-3-yl)-N-(2-oxo-2,3-dihydro-1H-benzo[d]imidazol-4-yl)acrylamide], the IC50 in series [1] came out at 13 nM. Besides, the “hTRPV1 pH (%, 3 μM)” value in series [3] is given as 53.26%. Also, the bioavailability in series [2] was 25.9%.
`O=C(NCc1ccc(C(F)(F)F)nc1N1CCCC1)Nc1cccc2[nH]c(=O)[nH]c12` [Comparative Example 1, 1-(2-oxo-1,3-dihydrobenzimidazol-4-yl)-3-[[2-pyrrolidin-1-yl-6-(trifluoromethyl)-3-pyridyl]methyl]urea, reference compound]: the IC50 in series [1] is 18.4 nM. The bioavailability in series [2] turned out to be 2.3%.
Regarding `CC(C)c1cccc(-n2nc(C(F)(F)F)cc2/C=C/C(=O)Nc2cccc3[nH]c(=O)[nH]c23)c1` [Example 50, (E)-3-(1-(3-isopropylphenyl)-3-(trifluoromethyl)-1H-pyrazol-5-yl)-N-(2-oxo-2,3-dihydro-1H-benzo[d]imidazol-4-yl)acrylamide], in series [1], the IC50 was 41.3 nM. In series [3], the “hTRPV1 pH (%, 3 μM)” value was found to be 34.22%.
For the molecule `O=C(/C=C/c1ccc(C(F)(F)F)nc1-c1cccs1)Nc1cccc2[nH]c(=O)[nH]c12` [Example 35, (E)-N-(2-oxo-2,3-dihydro-1H-benzo[d]imidazol-4-yl)-3-(2-(thiophen-2-yl)-6-(trifluoromethyl)pyridin-3-yl)acrylamide], the IC50 in series [1] was 11.8 nM. The “hTRPV1 pH (%, 3 μM)” value in series [3] came to 95.87%.
For `O=C(/C=C/c1ccc(C(F)(F)F)nc1-c1cccc(F)c1)Nc1cccc2[nH]c(=O)[nH]c12` [Example 30, (E)-3-(2-(3-fluorophenyl)-6-(trifluoromethyl)pyridin-3-yl)-N-(2-oxo-2,3-dihydro-1H-benzo[d]imidazol-4-yl)acrylamide], the IC50 in series [1] is 14.2 nM. In addition, in series [3], the “hTRPV1 pH (%, 3 μM)” value came to 48.62%.
The matching figures for `CC1(c2ccc(/C=C/C(=O)Nc3cccc4[nH]c(=O)[nH]c34)c(OCC3CC3)n2)CC1` [Example 20, (E)-3-(2-(cyclopropylmethoxy)-6-(1-methylcyclopropyl)pyridin-3-yl)-N-(2-oxo-2,3-dihydro-1H-benzo[d]imidazol-4-yl)acrylamide]: 53.5 nM and 86.79%.
As for `O=C(CCc1ccc(C(F)(F)F)nc1OCC1CC1)Nc1cccc2[nH]c(=O)[nH]c12` [Example 60, 3-(2-(cyclopropylmethoxy)-6-(trifluoromethyl)pyridin-3-yl)-N-(2-oxo-2,3-dihydro-1H-benzo[d]imidazol-4-yl)propaneamide], the IC50 in series [1] came out at 23.7 nM. In addition, in series [3], the “hTRPV1 pH (%, 3 μM)” value worked out at 67.19%.
The matching figures for `O=C(/C=C/c1ccc(C(F)(F)F)nc1OC1CCCC1)Nc1cccc2[nH]c(=O)[nH]c12` [Example 12, (E)-3-(2-(cyclopentyloxy)-6-(trifluoromethyl)pyridin-3-yl)-N-(2-oxo-2,3-dihydro-1H-benzo[d]imidazol-4-yl)acrylamide]: 31.5 nM and 81.25%.
As to `O=C(/C=C/c1ccc(C(F)(F)F)nc1N1CCOCC1)Nc1cccc2[nH]c(=O)[nH]c12` [Example 5, (E)-3-(2-morpholino-6-(trifluoromethyl)pyridin-3-yl)-N-(2-oxo-2,3-dihydro-1H-benzo[d]imidazol-4-yl)acrylamide], in series [1], the IC50 was found to be 16.3 nM. Moreover, the “hTRPV1 pH (%, 3 μM)” value in series [3] was 94.79%.
The matching figures for `CC1(c2nc(-c3cccc(Cl)c3)c(/C=C/C(=O)Nc3cccc4[nH]c(=O)[nH]c34)s2)CC1` [Example 57, (E)-3-(4-(3-chlorophenyl)-2-(1-methylcyclopropyl)thiazol-5-yl)-N-(2-oxo-2,3-dihydro-1H-benzo[d]imidazol-4-yl)acrylamide]: 39.8 nM and 61.78%.
For `CCC1CCN(c2nc(C(F)(F)F)ccc2/C=C/C(=O)Nc2cccc3[nH]c(=O)[nH]c23)CC1` [Example 2, (E)-3-(2-(4-ethylpiperidin-1-yl)-6-(trifluoromethyl)pyridin-3-yl)-N-(2-oxo-2,3-dihydro-1H-benzo[d]imidazol-4-yl)acrylamide], the IC50 in series [1] was found to be 28.8 nM. In series [3], the “hTRPV1 pH (%, 3 μM)” value was 86.72%.
As for `O=C(/C=C/c1ccc(C(F)(F)F)nc1OCC(F)(F)F)Nc1cccc2[nH]c(=O)[nH]c12` [Example 14, (E)-N-(2-oxo-2,3-dihydro-1H-benzo[d]imidazol-4-yl)-3-(2-(2,2,2-trifluoroethoxy)-6-(trifluoromethyl)pyridin-3-yl)acrylamide], the IC50 in series [1] is 34.5 nM. In addition, the “hTRPV1 pH (%, 3 μM)” value in series [3] came to 94.03%.
On to `O=C(/C=C/c1ccc(C(F)(F)F)nc1OCC1CCC1)Nc1cccc2[nH]c(=O)[nH]c12` [Example 25, (E)-3-(2-(cyclobutylmethoxy)-6-(trifluoromethyl)pyridin-3-yl)-N-(2-oxo-2,3-dihydro-1H-benzo[d]imidazol-4-yl)acrylamide], for which the IC50 in series [1] is 34.1 nM. In addition, the “hTRPV1 pH (%, 3 μM)” value in series [3] is on record as 89.76%.
The matching figures for `O=C(/C=C/c1sc(C2CC2)nc1-c1cccc(Cl)c1)Nc1cccc2[nH]c(=O)[nH]c12` [Example 56, (E)-3-(4-(3-chlorophenyl)-2-cyclopropylthiazol-5-yl)-N-(2-oxo-2,3-dihydro-1H-benzo[d]imidazol-4-yl)acrylamide]: 26 nM and 68.23%.
Turning to `O=C(/C=C/c1ccc(C(F)(F)F)nc1-c1cccc(Cl)c1)Nc1cccc2[nH]c(=O)[nH]c12` [Example 31, (E)-3-(2-(3-chlorophenyl)-6-(trifluoromethyl)pyridin-3-yl)-N-(2-oxo-2,3-dihydro-1H-benzo[d]imidazol-4-yl)acrylamide], in series [1], the IC50 is 26 nM. For the same molecule, the “hTRPV1 pH (%, 3 μM)” value in series [3] came to 82.34%.
